pEC50: −log10 of the molar value.
What was measured:
[1] = biological target: ligand binding domain of thyroid hormone receptor beta (Homo sapiens (Human), UniProt P10828); experiment: Thyroid hormone receptor TR-FRET binding assay (TRβ LBD); conditions: TRβ LBD 2 nM
Experimental: (§1) TR-FRET binding assay was used to test representative compounds herein.
(§2) The ligand binding domain of thyroid hormone receptor alpha and the ligand binding domain of thyroid hormone receptor beta with GST tag were purchased from Invitrogen. Biotin-SRC2-2 coactivator peptide was purchased from Sangon Biotech, Europium anti-GST and Streptavidin-D2 was from Cisbio.
(§3) Five microliters of 4× compound serial dilution was added in the 384-well plate, white, low volume, round-bottom assay plate. […] Centrifuge the assay plates at 1000 g for 1 min and incubate 1 hr at RT, protected from light. […] Calculate EC50 by fitting % Activity values and log of compound concentrations to nonlinear regression (dose response—variable slope) with Graphpad 5.0.

[2] = biological target: ligand binding domain of thyroid hormone receptor alpha (Homo sapiens (Human), UniProt P10827); experiment: Thyroid hormone receptor TR-FRET binding assay (TRα LBD); conditions: TRα LBD 4 nM
Experimental: as §1, §2, §3

[3] = biological target: TRβ-GAL4 binding domain chimeric receptors (Homo sapiens (Human), UniProt P10828); experiment: Thyroid hormone receptor cell assay (GAL4 luciferase reporter in HEK293-LUC cells); type: cell-based
Description: TRα-LBD or TRβ-LBD, coding sequence was inserted into pBIND expression vector (Promega, E1581) to express TRβ-GAL4 binding domain chimeric receptors. This expression vector was transfected into HEK293-LUC host cells with reporter vector (pGL4.35 which carry a stably integrated GAL4 promoter driven luciferase reporter gene). Upon agonist binding to the corresponding TRa-GAL4 or TRb-GAL4 chimeric receptor, the chimeric receptor binds to the GAL4 binding sites and stimulates the reporter gene.
Seed 2.5×10^6 HEK293-LUC cells into a 60 mm dish and incubated for 16 h at 37° C. under 5% CO2 atmosphere. Mix 12 microliters of Lipo LTX reagent in 250 microliters of Opti-MEM Medium by inversion. Mix 6 ug of DNA in 250 uL of Opti-MEM medium, then add 6 uL of Lipo PLUS Reagent. Add diluted DNA to each tube of diluted Lipo LTX Reagent (1:1 ratio), and mix by Pipettor and incubate at room temperature for 10 min. The reagent mixture was added to a 60 mm dish, incubated with cells for 4-7 h at 37 degrees under 5% CO2 atmosphere.
75 nL compound was added into 384 well assay plate using ECHO550 and then add HEK293-LUC cells (transfected, 17,000 cells/well) into the plate using phenol red-free DMEM containing 5% charcoal/dextran-treated FBS and incubated for 16-20 h at […] under 5% CO2 atmosphere. Add 25 uL of Steady-Glo Luciferase Assay Reagent into each well. Shake for 5 min and then record the luminescence value on Envision 2104 plate reader.

Chain of ligand binding domain of thyroid hormone receptor alpha (P10827 other isoform, or with tags, fused parts or gaps del 1-162, other chains not shown): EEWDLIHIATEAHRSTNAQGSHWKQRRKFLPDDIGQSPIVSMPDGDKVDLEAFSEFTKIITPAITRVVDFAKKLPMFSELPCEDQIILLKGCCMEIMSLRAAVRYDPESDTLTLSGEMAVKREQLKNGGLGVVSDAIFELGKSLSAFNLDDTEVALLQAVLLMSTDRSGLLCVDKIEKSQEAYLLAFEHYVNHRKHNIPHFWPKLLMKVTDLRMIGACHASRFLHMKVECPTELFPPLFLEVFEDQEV
Chain of TRβ-GAL4 binding domain chimeric receptors (P10828 217-461, stated change not applied): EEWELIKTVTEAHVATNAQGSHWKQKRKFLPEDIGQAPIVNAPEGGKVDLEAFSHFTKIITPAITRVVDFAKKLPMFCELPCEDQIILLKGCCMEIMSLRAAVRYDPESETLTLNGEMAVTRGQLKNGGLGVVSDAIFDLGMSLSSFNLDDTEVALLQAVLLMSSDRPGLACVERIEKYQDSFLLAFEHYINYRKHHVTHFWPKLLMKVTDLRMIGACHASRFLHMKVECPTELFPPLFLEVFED
Chain of ligand binding domain of thyroid hormone receptor beta (P10828 217-461): as the sequence (P10828 217-461, stated change not applied) above

SMILES | pEC50 [1] | pEC50 [2] | pEC50 [3]
N#Cc1nn(-c2cc(Cl)c(Oc3ccc4[nH]cc(C(N)=O)c4c3)c(Cl)c2)c(=O)[nH]c1=O [Compound 87] | 5.92 | – | –
Cc1nn(-c2cc(Cl)c(Oc3cc(C(C)C4CCCCC4)c(=O)[nH]n3)c(Cl)c2)c(=O)[nH]c1=O (single isomer, unassigned) [Compound 76] | 5.98 | 4.36 | –
N#Cc1nn(-c2cc(Cl)c(Oc3cc(C4CCCC4)c(=O)[nH]n3)c(C(F)(F)F)c2)c(=O)[nH]c1=O [Compound 63] | 6.77 | 4.05 | 5.07
Cc1nn(-c2cc(Br)c(Oc3cc(C4CCC4)c(=O)[nH]n3)c(Br)c2)c(=O)[nH]c1=O [Compound 13] | 6.92 | 5.87 | –
Cc1cc(OCP(=O)(O)O)cc(C)c1Cc1cc(C(C)C)c(=O)[nH]n1 [Compound 85] | < 4.05 | – | –
CC(c1ccccc1)c1cc(Oc2c(Cl)cc(-n3nc(C#N)c(=O)[nH]c3=O)cc2C(F)(F)F)n[nH]c1=O (single isomer, unassigned) [Compound 95] | 6.62 | – | –
Cc1nn(-c2cc(Cl)c(Oc3cc(C4CCCC4)c(=O)[nH]n3)c(Cl)c2)c(=O)[nH]c1=O [Compound 14] | 6.43 | 5.39 | 6.19
Cc1nn(-c2cc(Cl)c(Oc3cc([C@H](C)c4ccccc4)c(=O)[nH]n3)c(Cl)c2)c(=O)[nH]c1=O (single isomer, unassigned) [Compound 72] | 5.46 | 4.05 | –
CC(C)c1cc(Oc2c(Cl)cc(-n3nc(C(C)C)c(=O)[nH]c3=O)cc2Cl)n[nH]c1=O [Compound 38] | < 4.05 | < 4.05 | –
Cc1nn(-c2cc(Cl)c(Oc3cc(Cc4cccc(F)c4)c(=O)[nH]n3)c(Cl)c2)c(=O)[nH]c1=O [Compound 68] | 6.11 | 5.11 | –
N#Cc1nn(-c2cc(Cl)c(Oc3cc(Cc4ccc(O)cc4)c(=O)[nH]n3)c(Cl)c2)c(=O)[nH]c1=O [Compound 33] | 7.10 | 5.90 | 4.94
N#Cc1nn(-c2cc(Cl)c(Oc3cc(C4CCCCC4)c(=O)[nH]n3)c(Cl)c2)c(=O)[nH]c1=O [Compound 4] | 6.09 | 4.44 | 4.91
Cc1nn(-c2cc(Br)c(Oc3cc(C4CCCC4)c(=O)[nH]n3)c(Br)c2)c(=O)[nH]c1=O [Compound 22] | 7.05 | 5.85 | 6.70
N#Cc1nn(-c2cc(Cl)c(Oc3cc(C4CCC4)c(=O)[nH]n3)c(C(F)(F)F)c2)c(=O)[nH]c1=O [Compound 62] | 6.74 | 5.84 | 5.28
N#Cc1nn(-c2cc(Cl)c(Oc3cc(Cc4ccccc4)c(=O)[nH]n3)c(C(F)(F)F)c2)c(=O)[nH]c1=O [Compound 64] | 6.62 | 4.05 | –
Cc1cc(-n2nc(C#N)c(=O)[nH]c2=O)c(F)c(C)c1Oc1cc(C(C)C)c(=O)[nH]n1 [Compound 45] | 5.38 | < 5.00 | –
CC(C)c1c[nH]c2ncc(Oc3c(Cl)cc(-n4nc(C#N)c(=O)[nH]c4=O)cc3Cl)cc12 [Compound 84] | 6.18 | – | –
CC(c1cc(Oc2c(Cl)cc(-n3nc(C#N)c(=O)[nH]c3=O)cc2C(F)(F)F)n[nH]c1=O)C1CCCCC1 (racemic) [Compound 97] | 6.59 | – | –
N#Cc1nn(-c2cc(Cl)c(Oc3cc(Cc4cccc(O)c4)c(=O)[nH]n3)c(Cl)c2)c(=O)[nH]c1=O [Compound 34] | < 4.05 | < 4.05 | –
N#Cc1nn(-c2cc(Cl)c(Oc3cc(-c4ccccc4)c(=O)[nH]n3)c(Cl)c2)c(=O)[nH]c1=O [Compound 24] | < 5.00 | < 5.00 | –
CC(c1ccccc1)c1cc(Oc2c(Cl)cc(-n3nc(C#N)c(=O)[nH]c3=O)cc2Cl)n[nH]c1=O (single isomer, unassigned) [Compound 89] | 6.44 | – | –
CC(O)(CO)c1ccc(Cc2cc(Oc3c(Cl)cc(-n4nc(C#N)c(=O)[nH]c4=O)cc3Cl)n[nH]c2=O)cc1 (centres unmarked) [Compound 86] | < 4.05 | – | –
Cc1nn(-c2cc(Cl)c(Oc3cc(Cc4ccc(Cl)cc4)c(=O)[nH]n3)c(Cl)c2)c(=O)[nH]c1=O [Compound 49] | 6.64 | 5.49 | –
CC(c1cc(Oc2c(Cl)cc(-n3nc(C#N)c(=O)[nH]c3=O)cc2C(F)(F)F)n[nH]c1=O)C1CCCCC1 (single isomer, unassigned) [Compound 99] | – | – | 4.73

SMILES | pEC50 [1] | pEC50 [2] | pEC50 [3]
N#Cc1nn(-c2cc(Cl)c(Oc3cc(CC4CCC(O)CC4)c(=O)[nH]n3)c(Cl)c2)c(=O)[nH]c1=O (centres unmarked) [Compound 50] | 5.06 | < 4.05 | –
N#Cc1nn(-c2cc(Cl)c(Sc3cc(Cc4ccccc4)c(=O)[nH]n3)c(Cl)c2)c(=O)[nH]c1=O [Compound 80] | 5.63 | 4.05 | –
Cc1nn(-c2cc(Cl)c(Oc3cc(Cc4ccc(O)cc4)c(=O)[nH]n3)c(Cl)c2)c(=O)[nH]c1=O [Compound 53] | 8.00 | 5.86 | –
Cc1nn(-c2cc(Cl)c(Oc3cc(CC4CCC(O)CC4)c(=O)[nH]n3)c(Cl)c2)c(=O)[nH]c1=O (centres unmarked) [Compound 55] | 5.97 | 5.07 | –
N#Cc1nn(-c2cc(Cl)c(Oc3cc(C4CCN(Cc5ccccc5)CC4)c(=O)[nH]n3)c(Cl)c2)c(=O)[nH]c1=O [Compound 77] | 4.05 | 4.05 | –
Cc1nn(-c2cc(Cl)c(Oc3cc(CC4CCCC4)c(=O)[nH]n3)c(Cl)c2)c(=O)[nH]c1=O [Compound 59] | 6.72 | 5.93 | –
CC(C)c1cc(Oc2c(Cl)cc(CCP(=O)(O)O)cc2Cl)n[nH]c1=O [Compound 70] | 4.37 | 4.05 | –
Cc1nn(-c2cc(Br)c(Oc3cc(C(=O)c4ccccc4)c(=O)[nH]n3)c(Br)c2)c(=O)[nH]c1=O [Compound 78] | 6.09 | 4.57 | –
CC(C)c1nn(-c2c(Cl)cc(-n3nc(C#N)c(=O)[nH]c3=O)cc2Cl)c2ccc(O)cc12 [Compound 91] | 6.37 | – | 5.36
N#Cc1nn(-c2ccc(Oc3cc(C4CC4)c(=O)[nH]n3)c(Cl)c2)c(=O)[nH]c1=O [Compound 6] | < 5.00 | < 5.00 | –
CC(c1ccccc1)c1cc(Oc2c(Cl)cc(-n3nc(C#N)c(=O)[nH]c3=O)cc2Cl)n[nH]c1=O (single isomer, unassigned) [Compound 88] | 5.49 | – | –
COc1ccccc1Cc1cc(Oc2c(Cl)cc(-n3nc(C)c(=O)[nH]c3=O)cc2Cl)n[nH]c1=O [Compound 69] | 5.58 | 4.05 | –
CC(c1cc(Oc2c(Cl)cc(-n3nc(C#N)c(=O)[nH]c3=O)cc2Cl)n[nH]c1=O)C1CCCCC1 (single isomer, unassigned) [Compound 93] | 5.81 | – | –
N#Cc1nn(-c2cc(Cl)c(Oc3cc(CCc4ccccc4)c(=O)[nH]n3)c(Cl)c2)c(=O)[nH]c1=O [Compound 26] | < 5.00 | < 5.00 | –
N#Cc1nn(-c2cc(Cl)c(Oc3cc(CC4CCC(O)C4)c(=O)[nH]n3)c(Cl)c2)c(=O)[nH]c1=O (centres unmarked) [Compound 51] | < 4.05 | < 4.05 | –
CC(=O)N1CCC(c2cc(Oc3c(Cl)cc(-n4nc(C#N)c(=O)[nH]c4=O)cc3Cl)n[nH]c2=O)CC1 [Compound 19] | < 4.05 | < 4.05 | –
CC(c1cc(Oc2c(Cl)cc(-n3nc(C#N)c(=O)[nH]c3=O)cc2C(F)(F)F)n[nH]c1=O)C1CCCCC1 (single isomer, unassigned) [Compound 98] | – | – | 5.26
CC(c1ccccc1)c1cc(Oc2c(Cl)cc(-n3nc(C#N)c(=O)[nH]c3=O)cc2C(F)(F)F)n[nH]c1=O (racemic) [Compound 94] | 6.30 | – | –
Cc1nn(-c2cc(Cl)c(Oc3cc(C(C)C4CCCCC4)c(=O)[nH]n3)c(Cl)c2)c(=O)[nH]c1=O (centres unmarked) [Compound 61] | 6.82 | 4.81 | –
CC(c1cc(Oc2c(Cl)cc(-n3nc(C#N)c(=O)[nH]c3=O)cc2Cl)n[nH]c1=O)C1CCCCC1 (single isomer, unassigned) [Compound 92] | 6.54 | – | 4.87
CC(c1ccccc1)c1cc(Oc2c(Cl)cc(-n3nc(C#N)c(=O)[nH]c3=O)cc2C(F)(F)F)n[nH]c1=O (single isomer, unassigned) [Compound 96] | 6.08 | – | –
CC(C)c1cc(Oc2c(Cl)cc(-n3nc(C4CC4)c(=O)[nH]c3=O)cc2Cl)n[nH]c1=O [Compound 36] | 4.93 | < 4.05 | –
CC(C)c1n[nH]c2ccc(Oc3c(Cl)cc(-n4nc(C#N)c(=O)[nH]c4=O)cc3Cl)cc12 [Compound 90] | 6.74 | – | 5.56
N#Cc1nn(-c2cc(Cl)c(Oc3cc(Cc4ccccc4O)c(=O)[nH]n3)c(Cl)c2)c(=O)[nH]c1=O [Compound 57] | 5.79 | 4.05 | –

Reference: patent US12391677B2, “Thyroid hormone receptor agonists” (INVENTISBIO CO., LTD., priority 2018, dated 2025)
